The values below come from US11925649B2, “Treatments for diabetic neuropathy” (University of Manitoba, priority 2010, dated 2024).

Assay [1] has as its system mitochondria from lumbar DRG of STZ-diabetic rats. The experiment in a line: Mitochondrial respiratory chain activity in lumbar DRG of STZ-diabetic rats. The class given is in vivo, rat. The settings on record: daily s.c. during last eight weeks, 20 weeks. An excerpt:
The rats were then culled and subsequently the lumbar DRG were isolated and rinsed in ice-cold solution containing STE buffer (250 mmol/l sucrose, 10 mmol/l Tris-HCl, 1 mmol/l EDTA, pH 7.4), and then homogenized with a polytron homogenizer ([…] GmbH, Switzerland) using 3×7.5 s grinding pulses at 30 s intervals according to the method taught by Chowdhury et al. (2010).
Mitochondrial respiratory chain activity in freshly isolated mitochondria from lumbar DRG of age-matched control, diabetic, and pirenzepine-treated diabetic rats was determined using a Clarke-type electrode (Oroboros Oxygraph-2K; Oroboros Instruments, Innsbruck, Austria) following the method taught by Chowdhury et al. (2005, Biochem Biophys Res Commun. 333: 1139-1145), in the presence of specific substrates and inhibitors of the mitochondrial respiratory chain (FIG. 19). Basal respiration in lumbar DRG mitochondria is stated as respiration at state 4 with energetic substrates, pyruvate and malate (P+M). Coupled respiration at state 3 was induced by addition of ADP. Then, the uncoupled rate was determined by adding the uncoupling agent, carbonylcyanide p-trifluoromethoxyphenylhydrazone (FCCP). Ascorbate (Asc) and N,N,N′,N′-tetramethyl-p-phenylenediamine (TMPD) were then added to determine the capacity of cytochrome c oxidase (complex IV). TMPD is an artificial redox mediator that assists transfer of electrons from ascorbate to cytochrome c.

In a further assay the test system is NDUFS3. The experiment in a line: NDUFS3 expression in DRG of STZ-diabetic mice (Western blot). In kind it is in vivo, mouse. As to conditions: daily injections for 8 weeks. The protocol: Quantitative Western blotting was performed as described in Example 15. Quantitative Western blotting was performed as previously disclosed by Chowdhury et al (2010) and Fernyhough et al. (1999). DRG homogenates of 5-10 μg of protein were resolved on a 10% SDS-PAGE gel and electroblotted onto nitrocellulose membrane. Blots were then blocked in 5% nonfat milk containing 0.05% Tween-20, rinsed in PBS (pH 7.4) and incubated with the following antibodies: monoclonal anti-cytochrome c oxidase subunit 4 (COX IV; 1:1000, Mitosciences, Eugene, OR, US), monoclonal anti-NADH dehydrogenase (ubiquinone) iron-sulfur protein 3 (NDUFS3, 1:1000, Mitosciences, Eugene, OR, US). Extracellular signal-regulated kinase (T-ERK; 1:2000, Covance, Princeton, NJ, US) was probed as a loading control. The blots were rinsed, incubated in Western blotting Luminol Reagent (Santa Cruz Biotechnology Inc., Santa Cruz, CA, US) and imaged using a BioRad Fluor-S image analyzer (BioRad, Hercules, CA, US).

For assay [2], the system named is DRG sensory neurons from M1R knockout mice. The experiment in a line: Neurite outgrowth in sensory neuron cultures from M1R knockout mice. The settings on record: 1 μM, 24 hr. The class given is cell-based, mouse.
For assay [3], the system named is STZ diabetic C57Bl6J mice. The experiment in a line: Prophylactic topical hydrogel application in STZ diabetic mice. The class given is in vivo, mouse. The protocol:
Male C57Bl6J mice were made diabetic with 2 injections of 90 mg/kg STZ on consecutive days, and then separated into three groups. There were also two groups control (non-diabetic) mice. The first group of control (non-diabetic) mice received daily topical treatment with 50 μl Intrasite® hydrogel (Intrasite is a registered trademark of T. J. Smith and Nephew, Hull, England) to both hind paws, with a controlled exposure time of 20 minutes. […] The third group of mice were diabetic mice that received daily topical treatment with 50 μl hydrogel to both hind paws.
Two months after the second STZ injection, the function of the small sensory neurons in all five groups of mice were determined by measuring hind paw thermal response latency following the procedure described in Example 7.
The structural integrity of small sensory neurons was assessed by measuring IENF profiles in hind paw plantar skin as described in Example 7.
A suitable gel is exemplified by Intrasite® sterile hydrogel prod. no. 66027313 (Smith & Nephew Inc, St. Laurent, PQ, CA).

Assay [4] concerns STZ-induced diabetic C57Bl6J mice. Kind of assay: Reappearance of neuropathy after withdrawal of treatment. In kind it is in vivo, mouse. From the text: Only 9 weeks later (the 17-wk time point) was there a significant reappearance of hypoalgesia in the previously treated STZ-induced diabetic mice (FIG. 12).
Assay [5] deals with STZ diabetic C57Bl6J mice. The experiment in a line: Prophylactic subcutaneous injections in STZ diabetic mice. In kind it is in vivo, mouse.
Description: Male C57Bl6J mice were made diabetic with 2 injections of 90 mg/kg STZ on consecutive days, and then separated into four groups.
Two months after the second STZ injection, the function of the small sensory neurons in all five groups of mice were determined by measuring hind paw thermal response latency using a modified Hargreaves apparatus (UARD, San Diego, CA, US) with a heating rate of approximately 1° C./sec from a baseline of 30° C. and with a cut-off at 20 seconds as taught by Calcutt et al. (2004, Diabetologia 47: 718-724). […] Statistical analysis was done using the one-way ANOVA with post-hoc comparison using Tukey's test.
The structural integrity of small sensory neurons was assessed by measuring intraepidermal nerve fiber (IENF) profiles in hind paw plantar skin that was immersion fixed in 4% paraformaldehyde and processed to paraffin blocks. Sections (6 μm) were stained with the pan-neuronal marker PGP9.5 (1:1000, Biogenesis Ltd., Poole, UK) and viewed under a light microscope to allow counting of IENF and sub-epidermal nerve profiles (SNP) per unit length of the dermal: epidermal border using the technique taught by Beiswenger et al. (2008, Neurosci Lett. 442, 267-272). […] Statistical analyses were done using one-way ANOVA followed by Tukey's test.
Motor nerve conduction velocity was measured under isoflurane anesthesia and core and nerve temperature were maintained at 37° C. using a heating pad and lamps following the teachings of Jolivalt et al, (2011, Diabetes Obesity and Metabolism, June 2 Epub ahead of print). The sciatic nerve was stimulated (5V, 0.05 ms pulse, square wave) with needle electrodes at the sciatic notch or ankle. […] The difference in response latencies of the M wave after stimulation at the sciatic notch and ankle was recorded as the time required for the motor nerve conduction between the stimulation sites. The distance between stimulation sites was measured on the surface of the fully extended hind limb and divided by the difference in M wave latencies to calculate sciatic motor nerve conduction velocity (MNCV). […]
The test system of assay [6] is STZ-diabetic Swiss Webster mice. The experiment in a line: Reversal of diabetic sensory neuropathy with oral dosing. In kind it is in vivo, mouse. The protocol:
Male out-bred Swiss Webster mice were made diabetic with 2 injections of 90 mg/kg STZ on consecutive days. […] The mice were maintained for 8 weeks after STZ injections.

A further assay concerns PGC-1α. The experiment in a line: PGC-1α expression in DRG of STZ-diabetic mice (Western blot). As to conditions: daily s.c. injections for 8 weeks, lumbar DRG. In kind it is in vivo, mouse. Here is the method:
Lumbar DRG were isolated and rinsed in ice-cold solution containing STE buffer (250 mmol/l sucrose, 10 mmol/l Tris-HCl, 1 mmol/l EDTA, pH 7.4), and then homogenized with a polytron homogenizer ([…] GmbH, Switzerland) using 3×7.5 s grinding pulses at 30 s intervals according to the method taught by Chowdhury et al. (2010, Diabetes 59: 1082-1091).
Quantitative Western blotting was performed as previously disclosed by Chowdhury et al (2010) and Fernyhough et al. (1999, Diabetes 48: 881-889). DRG homogenates of 5-10 μg of protein were resolved on a 10% SDS-PAGE gel and electroblotted onto nitrocellulose membrane. Blots were then blocked in 5% nonfat milk containing 0.05% Tween-20, rinsed in PBS (pH 7.4) and incubated with the following antibodies: polyclonal anti-phospho AMPK (1:1000, Cell Signaling Technology, Danvers, MA, US), polyclonal anti-PGC-1α (1:1000, Santa Cruz Biotechnology Inc, Santa Cruz, CA, USA) and monoclonal anti-ATP synthase β subunit (1:2000 dilution, Mitosciences, Eugene, OR). Extracellular signal-regulated kinase (ERK; 1:2000, Covance, Princeton, NJ, US) was probed as a loading control (previous studies show this protein to not change level of expression in DRG in diabetes). […]
In general terms: A western blot detects proteins with antibodies after separation by electrophoresis.

Where [7] appears, read: control (non-diabetic) mice, 10% hydrogel, treated hindpaw.
Where [8] appears, read: diabetic mice, 2% or 10% hydrogel, vs control mice.
Setting [9] is: 10 mg/kg daily s.c., two months after STZ, vs control mice.
The mark [10] stands for this setting: daily oral gavage for 8 weeks from week 8.

SMILES strings stand for the structures.

For the compound `CN1CCN(CC(=O)N2c3ccccc3C(=O)Nc3cccnc32)CC1` [pirenzepine, 11-[2-(4-methylpiperazin-1-yl)acetyl]-5H-pyrido[2,3-b][1,4]benzodiazepin-6-1], in assay [1], the “capacity of cytochrome c oxidase (complex IV) (Asc+TMPD)” value was “not significantly different from the non-diabetic controls”, the “coupled respiration (P+M+ADP)” value is “not significantly different from the non-diabetic controls” and the “uncoupled respiration (FCCP)” value was “not significantly different from the non-diabetic controls”. In assay [1] (vs control and diabetic rats), the “basal respiration rates with pyruvate and malate (P+M)” value is given as “similar”. In the assay on NDUFS3, the “expression of NDUFS3 mitochondrial protein” value is “restored the expression”. Moreover, the neurite outgrowth entry in assay [2] is “did not enhance neurite outgrowth”. Moreover, in assay [3] (setting [7]), the “IENF per mm of skin” value was “numerically, but statistically insignificant, increases” and the “SNP per mm of skin” value was “numerically, but statistically insignificant, increases”. In addition, in assay [3] (control (non-diabetic) mice, daily topical hydrogel comprising 10% pirenzepine), the thermal response latency result is reported as “not affected”. In assay [3] (setting [8]), the “levels of IENF in treated paw” value is “no significant changes” and the “levels of SNP in treated paw” value is “no significant changes”. The “thermal response latency in treated paw” value in assay [3] (diabetic mice, daily topical 2% or 10% hydrogel, vs control mice) was “did not demonstrate any significant changes”. Besides, in assay [4] (10 mg/kg daily s.c., after 8 weeks), the thermal hypoalgesia result is reported as “hypoalgesia was prevented”. For the same compound, in assay [4] (treatment stopped at 8 weeks, 17-wk time point), the “time after stopping treatment to significant reappearance of hypoalgesia” value is on record as 9 weeks. For the same compound, in assay [5] (setting [9]), the “hind paw thermal response latency” value is reported as “not significantly different from the control non-diabetic mice” and the “paw levels of IENF” value is “no significant changes”. Further, the “motor nerve conduction velocity” value in assay [5] (diabetic mice) was “prevented deficits in motor nerve conduction velocity”. Besides, in assay [6] (setting [10]), the “loss of IENF” value was “reversed loss”, the “loss of SNP” value is on record as “reversed loss” and the thermal hypoalgesia entry is “reversed thermal hypoalgesia”. Moreover, in assay [6] (dissolved in water, administered orally to mice), the “efficacy of oral formulation” value is “exhibited efficacy”. In addition, in the assay on PGC-1α, the “expression of PGC-1α” value is given as “restored the expression”.
